Data reported in ChEMBL document CHEMBL3612061, “Imidazopyridines as a source of biological activity and their pharmacological potentials-Infrared and Raman spectroscopic evidence of their content in pharmaceuticals and plant materials” (Bioorg Med Chem, 2015).
In brackets after ≈: the same amount, converted by molar mass.

Assays:
Cerebral cortex = assay: Inhibition of GABA uptake in rat cerebral cortex; format: functional, tissue-based
MDA-MB-231 = assay: Cytotoxicity against human MDA-MB-231 cells; format: functional, cell-based
MCF7 = assay: Cytotoxicity against human MCF7 cells; format: functional, cell-based
[1] = Cytotoxicity against human SKBR3 cells; format: functional, cell-based; settings: SK-BR-3
[2] = Cytotoxicity against mouse leukemia cells; format: functional, cell-based; settings: Leukemia cell
[3] = molecular target: T1, Type-2 angiotensin II receptor (Rattus norvegicus, UniProt P35351); assay: Inhibition of rat AT2 receptor
T1 sequence (P35351 whole entry): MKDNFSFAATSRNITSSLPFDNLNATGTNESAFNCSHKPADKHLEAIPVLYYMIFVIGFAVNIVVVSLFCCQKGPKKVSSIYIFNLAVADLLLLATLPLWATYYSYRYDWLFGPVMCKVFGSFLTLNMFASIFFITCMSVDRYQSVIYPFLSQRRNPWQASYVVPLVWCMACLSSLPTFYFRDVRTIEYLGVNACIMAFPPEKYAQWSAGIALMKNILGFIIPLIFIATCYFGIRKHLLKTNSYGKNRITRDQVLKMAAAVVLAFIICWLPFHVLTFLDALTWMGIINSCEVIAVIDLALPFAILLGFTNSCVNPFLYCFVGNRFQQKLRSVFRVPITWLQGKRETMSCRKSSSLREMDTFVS

[4] = system: Classical swine fever virus; assay: Antiviral activity against Classical swine fever virus assessed as protection of viral infection by cell based assay; format: functional
Yellow fever virus = assay: Antiviral activity against Yellow fever virus assessed as protection against virus-induced cytopathogenic effect by cell based assay; format: functional; settings: read-out: ID50 (the source's name)
Human respirovirus 3 = assay: Antiviral activity against Parainfluenza type 3 assessed as protection against virus-induced cytopathogenic effect by cell based assay; format: functional; settings: read-out: ID50 (the source's name)
[5] = system: Vesicular stomatitis virus; assay: Antiviral activity against Vesicular stomatitis virus assessed as protection against virus-induced cytopathogenic effect by cell based assay; format: functional; settings: read-out: ID50 (the source's name)

Q: With `O=C(O)C1Cc2[nH]cnc2CN1` (configuration not stated) as the compound, how does the IC50 (Cerebral cortex) read?
A: Its IC50 is 270000 nM.

Q: With `Nc1nccc2c1ncn2[C@@H]1O[C@H](CO)[C@@H](O)[C@H]1O` as the compound, how does the IC50 (MDA-MB-231) read?
A: The IC50 was < 100 nM.

Q: And the IC50 (MCF7)?
A: The IC50 was < 100 nM.

Q: And the IC50 [1]?
A: Its IC50 is < 100 nM.

Q: For `OC[C@H]1O[C@@H](n2cnc3/c(=N\O)[nH]cnc32)[C@H](O)[C@@H]1O`, which IC50 [2] is on record?
A: Its IC50 is 900 nM.

Q: With `OC[C@H]1O[C@@H](n2cnc3c(NO)cc(Cl)nc32)[C@H](O)[C@@H]1O` as the compound, how does the IC50 [2] read?
A: The IC50 was 900 nM.

Q: For `COc1ccc(CN2C=NC3CN(C(=O)C(c4ccccc4)c4ccccc4)C(C(=O)O)CC32)cc1C` (configuration not stated), which IC50 [3] is on record?
A: The IC50 was 34 nM.

Q: Which EC50 [4] does the source give for `Brc1ccc(Cn2ccc3nc(-c4ccccc4)nc-3c2)cc1` here?
A: The EC50 was 800 nM.

Q: Which IC50 (MDA-MB-231) does the source give for `Nc1nccc2c1ncn2C1C=C(CO)C(O)C1O` (configuration not stated) [3-DEAZANEPLANOCIN A] here?
A: Its IC50 is < 250 nM.

Q: What about the IC50 (Yellow fever virus) of the same compound?
A: The IC50 was 0.02 µg/mL (≈ 0.0763 µM).

Q: And the IC50 (Human respirovirus 3)?
A: Its IC50 is 0.02 µg/mL (≈ 0.0763 µM).

Q: What about the IC50 (MCF7) of the same compound?
A: The IC50 was < 250 nM.

Q: What about the IC50 [1] of the same compound?
A: Its IC50 is < 250 nM.

Q: What about the IC50 [5] of the same compound?
A: The IC50 was 0.02 µg/mL (≈ 0.0763 µM).

Q: Which results are given for `Nc1ncnc2c1ncn2[C@@H]1C=C(CO)[C@@H](O)[C@H]1O` [NEOPLANOCIN A]?
A: IC50 (MDA-MB-231): < 25000 nM; IC50 (MCF7): < 25000 nM; IC50 [1]: < 25000 nM
